The term solubility denotes how much of the substance goes into solution per volume. Lower therefore signals a poorly soluble substance. The EC50 is the concentration needed to bring the measured effect to its halfway point. As usually defined, the half-life is how long it takes for the measured level to halve. Low values mean rapid decline, high ones slow decline.

Where a SMILES comes first, the peptide text is derived from it.

The source of these data is patent publication US11352391B2, “Compositions for inducing urinary voiding and defecation” (Dignify Therapeutics, LLC, priority 2017, dated 2022).

The nature of data set [1]: Saline solubility of heptapeptides. Type of data set: physicochemical. The method, then:
Heptapeptides A-K shown below in Table 1 (SEQ ID NOs: 1-11) were synthesized according to standard Fmoc-mediated solid-phase techniques and purified under typical C18 reverse-phase conditions.
Compounds D-K were considered to be insoluble in saline (<1 mg/mL).

Data set [2] concerns the target T1, recombinant hNK2R expressed in CHO cells (Homo sapiens, UniProt P21452).
T1 sequence (P21452 1-398): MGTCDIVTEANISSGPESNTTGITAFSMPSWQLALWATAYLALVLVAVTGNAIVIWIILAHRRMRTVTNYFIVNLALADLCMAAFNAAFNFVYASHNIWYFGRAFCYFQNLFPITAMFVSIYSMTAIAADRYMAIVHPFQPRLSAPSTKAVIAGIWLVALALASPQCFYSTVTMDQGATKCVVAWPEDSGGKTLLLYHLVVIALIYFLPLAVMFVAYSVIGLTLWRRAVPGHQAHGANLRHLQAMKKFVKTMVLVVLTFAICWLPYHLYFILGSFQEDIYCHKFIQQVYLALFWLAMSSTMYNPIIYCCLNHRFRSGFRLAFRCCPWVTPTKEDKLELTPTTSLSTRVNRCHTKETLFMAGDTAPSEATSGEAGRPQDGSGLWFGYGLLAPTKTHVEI
Kind of data set: Intracellular calcium mobilization (FLIPR) in CHO-hNK2 cells. The class given is cell-based. On the procedure:
(§1) CHO-hNK1 and CHO-hNK2 cells were seeded into black walled clear-bottom 384-well plates) at a density of 10,000 and 15,000 cells per well in 50 μL culture media, respectively, and grown overnight at 37° C. in a humidified CO2-incubator. Cells were washed in washing buffer using the EMBLA 384 instrument, leaving 20 μL of buffer per well after the final aspiration. Cells were then incubated at 37° C. with the cytoplasmic Ca2+ indicator Fluo-4 AM (final concentration 1 μM) in assay buffer (20 mM HEPES, 145 mM NaCl, 5 mM KCl, 5.5 mM glucose, 1 mM MgCl2 and 2 mM CaCl2, pH 7.4, 0.05% Pluronic F-127 and 0.1% BSA) containing 2.5 mM probenecid for […] (cell loading). Cells were then washed 3 times in washing buffer (20 mM HEPES, 145 mM NaCl, 5 mM KCl, 5.5 mM glucose, 1 mM MgCl2 and 2 mM CaCl2, pH 7.4 and 2.5 mM probenecid) using the EMBLA 384 instrument, leaving 30 μL of buffer in each well after the last wash. Loaded cell plates were transferred to the FLIPR machine and calcium responses were monitored as described below. A dual read-out FLIPR protocol was used, allowing for characterization of both agonist and antagonist profiles. For quality control, in each compound plate the signal was monitored by evaluating the responses to the reference standards (NKA and Substance P).
(§2) Concentration response curves of compounds were run in duplicate on two different occasions from the same stock solutions. Test solutions were prepared from 10 mM stock solutions in DMSO and 1 μL of each solution was stamped into V-bottom assay plates containing 49 μL assay buffer. The final concentration of DMSO was 0.5% in each well.
On the technique in general: Calcium flux is commonly read through the fluorescence of an indicator in the cells.

For data set [3], the target named is recombinant hNK1R expressed in CHO cells (Homo sapiens, UniProt P25103). Description: Intracellular calcium mobilization (FLIPR) in CHO-hNK1 cells. Type of data set: cell-based. Conditions: calcium mobilization, CHO-hNK1 cells; read-out: hNK1 EC50. On the procedure:
as §1, §2

Data set [4] can be described thus: Pharmacokinetics in rat plasma after cassette IV bolus dosing. Conditions: Sprague-Dawley, in vivo, iv. On the procedure:
The concentrations of compounds (SEQ ID NOS: 1-11) were measured in rat plasma after intravenous (IV) bolus dosing to determine pharmacokinetic profiles of individual compounds.
Animal preparation: In vivo studies were performed in anesthetized adult Sprague Dawley rats. Rats were anesthetized with urethane (1.2-1.4 g/kg subcutaneous injection). Surgical procedures were then performed with the addition of isoflurane anesthesia (0.05-1.5% in 02) as needed. A venous cannula was inserted into the jugular vein for intravenous (IV) administration of compounds.
In vivo dosing and plasma sampling: Compounds were divided into two groups (soluble and insoluble). Each group was dosed as a cassette in which four compounds (100 μg/kg each compound) were combined into a single IV bolus injection to anesthetized adult Sprague-Dawley rats. Soluble compounds were dissolved in saline. Insoluble compounds were dissolved in a 10% ethanol/saline solution. Rats were cassette dosed based on weight using 0.1 mg/mL solutions of individual compounds. Blood samples (700 μL) were collected using a carotid artery cannula into EDTA tubes containing ascorbic acid (final concentration 1%), and plasma was isolated.
Bioanalytical assay: A reversed-phase HPLC with Turbo Ion Spray MS/MS detection method was developed for bioanalysis. Mass spec transition and settings were individually optimized for each compound and then compounds were cassetted for HPLC method development and optimization. [^13C9; ^15N] [Lys5,MeLeu9,Nle10]-NKA(4-10) was used as an internal standard (IS). Analyte-to-IS peak area ratios for individual compounds were used to create linear calibration curves (1-20 ng/mL) using 1/×2 weighted least-squares regression analysis for evaluation of method linearity, precision and accuracy. For plasma concentration measurements, plasma samples were spiked with IS, processed by extraction, and analyzed using LC-MS/MS. Positive (M+H)+ ions for individual compounds and IS were monitored in MRM mode.

The test system of data set [5] is anesthetized dog. Description: Colorectal pressure manometry in anesthetized dog. The class given is in vivo. On the procedure: Animal preparation: Naïve beagle dogs were fasted for 12-24 hours and received a warm water enema the night prior to, and the morning of, the experiment to clear the rectum and lower colon of feces. The day of the experiment, a 20 gauge IV catheter (Terumo Surflo) was placed in the cephalic vein for anesthetic induction (propofol, 10 mg/kg; IV) and delivery of IV fluids (5-10 ml/kg/hr) and compounds. The sedated dog was intubated with a 5-6 Fr tracheal tube and was maintained on 2-3% isoflurane via a ventilator (15-25 breaths/min; tidal volume […]) for the remainder of the experiment.
Bowel contractility: For colorectal pressure manometry, an ˜3 inch balloon catheter was inserted into the rectum and secured to the tail with tape. This catheter was connected via a three-way stopcock to a pressure transducer (UTAH MEDICAL PRODUCTS; DelTran II) for pressure recording. Data were recorded using PowerLab/8SP acquisition system using LabChart software (version 7.3.7; ADINSTRUMENTS, Australia). Arterial pressure, ECG, temperature and blood oxygen saturation (spO2) were monitored throughout the experiment (MEDTRONIC LIFEPAK12). Dogs were recovered in a quiet room under veterinary supervision.

Chain of recombinant hNK1R expressed in CHO cells (P25103 whole entry): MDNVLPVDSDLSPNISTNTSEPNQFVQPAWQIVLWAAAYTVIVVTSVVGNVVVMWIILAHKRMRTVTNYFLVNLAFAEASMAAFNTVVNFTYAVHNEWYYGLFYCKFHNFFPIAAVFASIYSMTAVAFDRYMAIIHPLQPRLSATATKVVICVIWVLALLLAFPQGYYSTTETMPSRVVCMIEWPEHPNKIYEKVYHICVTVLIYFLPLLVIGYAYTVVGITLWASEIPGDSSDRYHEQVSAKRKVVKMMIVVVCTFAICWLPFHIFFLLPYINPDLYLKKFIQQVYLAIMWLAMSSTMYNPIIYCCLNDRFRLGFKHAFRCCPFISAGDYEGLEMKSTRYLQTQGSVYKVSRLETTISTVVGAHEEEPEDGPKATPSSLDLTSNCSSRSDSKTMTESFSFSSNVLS

`CCCC[C@H](NC(=O)[C@H](CC(C)C)N(C)C(=O)CNC(=O)[C@@H](NC(=O)[C@H](Cc1ccccc1)NC(=O)[C@H](CCCNC(=N)N)NC(=O)[C@@H](N)CC(=O)O)C(C)C)C(N)=O` [Compound B, Asp-Arg-Phe-Val-Gly-(NMe-Leu)-Nle-NH2] (HELM PEPTIDE1{D.R.F.V.G.[meL].[Nle].[am]}$$$$V2.0; N-terminus assumed) registered a solubility in data set [1] of over 20 mg/mL. Besides, the half-maximal effective concentration (EC50) was 0.08 nM in data set [2] (calcium mobilization, CHO-hNK2 cells, read-out: hNK2 EC50) and 5.84 nM in data set [3]. Moreover, in data set [2] (ratio of EC50s hNK1R/hNK2R), the hNK2 selectivity ratio is 70. For the same molecule, in data set [4], the half-life is 12 to 72 s. The molecule also yielded a level at 10 min in data set [4] (100 ug/kg) of under 1 ng/mL. For the same molecule, the “duration of colorectal pressure response” value in data set [5] (IV bolus (B and E 3 μg/kg; G 3, 30 and 66 ug/kg)) is “approximately 7 minutes”; in data set [5] (SC 30 μg/kg), “over 30 minutes”. For the same molecule, the “onset of increase in colorectal pressure” value in data set [5] (both IV bolus 3 μg/kg and SC 30 μg/kg) was at most 3 min.
